Assays:
Format in all cases: in vivo
[1] = system: Kochia (Kochia scoparia); experiment: Test A preemergence; settings: Bassia scoparia, pre-emergence, 240 h, preemergence, 0 to 100 scale where 0 is no effect and 100 is complete control, read-out: Kochia plant response rating
Method in brief: (§1)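 Preemergence soil spray on seeded pots or post-emergence spray on 1–2 leaf plants, in loam–sand blend. Greenhouse ~10 d. Visual rating 0–100 against untreated plants.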

[2] = system: barnyardgrass (Echinochloa crus-galli); experiment: Test A preemergence; settings: Echinochloa crus-galli, pre-emergence, 240 h, preemergence, 0 to 100 scale where 0 is no effect and 100 is complete control, read-out: Barnyardgrass plant response rating
Method in brief: as §1

[3] = system: giant foxtail (Setaria faberii); experiment: Test A preemergence; settings: Setaria faberi, pre-emergence, 240 h, preemergence, 0 to 100 scale where 0 is no effect and 100 is complete control, read-out: Foxtail, Giant plant response rating
Method in brief: as §1

[4] = system: pigweed (Amaranthus retroflexus); experiment: Test A preemergence; settings: Amaranthus retroflexus, pre-emergence, 240 h, preemergence, 0 to 100 scale where 0 is no effect and 100 is complete control, read-out: Pigweed plant response rating
[5] = system: ragweed (common ragweed, Ambrosia elatior); experiment: Test A preemergence; settings: Ambrosia artemisiifolia, pre-emergence, 240 h, preemergence, 0 to 100 scale where 0 is no effect and 100 is complete control, read-out: Ragweed plant response rating
Method in brief: as §1

[6] = system: ryegrass, Italian (Italian ryegrass, Lolium multiflorum); experiment: Test A preemergence; settings: Lolium multiflorum, pre-emergence, 240 h, preemergence, 0 to 100 scale where 0 is no effect and 100 is complete control, read-out: Ryegrass, Italian plant response rating
Method in brief: as §1

[7] = system: Galium (catchweed bedstraw, Galium aparine); experiment: Test A postemergence; settings: Galium, post-emergence, 240 h, postemergence, read-out: Galium plant response rating
Method in brief: as §1

[8] = system: barnyardgrass (Echinochloa crus-galli); experiment: Test A postemergence; settings: Echinochloa crus-galli, post-emergence, 240 h, postemergence, read-out: Barnyardgrass plant response rating
Method in brief: as §1

[9] = system: blackgrass (Alopecurus myosuroides); experiment: Test A postemergence; settings: Alopecurus myosuroides, post-emergence, 240 h, postemergence, read-out: Blackgrass plant response rating
Method in brief: as §1

[10] = system: corn (Zea mays); experiment: Test A postemergence; settings: Zea mays, post-emergence, 240 h, postemergence, read-out: Corn plant response rating
Method in brief: as §1

[11] = system: giant foxtail (Setaria faberii); experiment: Test A postemergence; settings: Setaria faberi, post-emergence, 240 h, postemergence, read-out: Foxtail, Giant plant response rating
Method in brief: as §1

[12] = system: pigweed (Amaranthus retroflexus); experiment: Test A postemergence; settings: Amaranthus retroflexus, post-emergence, 240 h, postemergence, read-out: Pigweed plant response rating
Method in brief: as §1

[13] = system: ragweed (common ragweed, Ambrosia elatior); experiment: Test A postemergence; settings: Ambrosia artemisiifolia, post-emergence, 240 h, postemergence, read-out: Ragweed plant response rating
Method in brief: as §1

[14] = system: ryegrass, Italian (Italian ryegrass, Lolium multiflorum); experiment: Test A postemergence; settings: Lolium multiflorum, post-emergence, 240 h, postemergence, read-out: Ryegrass, Italian plant response rating
Method in brief: as §1

[15] = system: wheat (Triticum aestivum); experiment: Test A postemergence; settings: Triticum aestivum, post-emergence, 240 h, postemergence, read-out: Wheat plant response rating
Method in brief: as §1

[16] = 125 g ai/ha, visual injury on 0 to 100 scale (0 no effect, 100 complete control), approx. 10 d
[17] = 500 g ai/ha, 0 to 100 scale, 0 is no effect, 100 is complete control

CC(C)Oc1ccc([C@H]2CNC(=O)[C@@H]2C(=O)Nc2ccc(F)cc2F)cc1 [Compound 1137]
0%: pest or weed control at 125 g/ha ([1]; 125 g ai/ha, approx. 10 d) | pest or weed control at 500 g/ha ([1]; 500 g ai/ha) | pest or weed control at 125 g/ha ([2]; 125 g ai/ha, approx. 10 d) | pest or weed control at 500 g/ha ([2]; 500 g ai/ha) | pest or weed control at 125 g/ha ([3]; 125 g ai/ha, approx. 10 d) | pest or weed control at 500 g/ha ([3]; 500 g ai/ha) | pest or weed control at 125 g/ha ([4]; 125 g ai/ha, approx. 10 d) | pest or weed control at 500 g/ha ([4]; 500 g ai/ha) | pest or weed control at 125 g/ha ([5]; 125 g ai/ha, approx. 10 d) | pest or weed control at 500 g/ha ([5]; 500 g ai/ha) | pest or weed control at 125 g/ha ([6]; 125 g ai/ha, approx. 10 d) | pest or weed control at 500 g/ha ([6]; 500 g ai/ha) | pest or weed control at 125 g/ha [7, 16] | pest or weed control at 500 g/ha [7, 17] | pest or weed control at 125 g/ha [8, 16] | pest or weed control at 500 g/ha [8, 17] | pest or weed control at 125 g/ha [9, 16] | pest or weed control at 500 g/ha [9, 17] | plant injury at 125 g/ha [10, 16] | plant injury at 500 g/ha [10, 17] | pest or weed control at 125 g/ha [11, 16] | pest or weed control at 500 g/ha [11, 17] | pest or weed control at 125 g/ha [12, 16] | pest or weed control at 500 g/ha [12, 17] | pest or weed control at 125 g/ha [13, 16] | pest or weed control at 500 g/ha [13, 17] | pest or weed control at 125 g/ha [14, 16] | pest or weed control at 500 g/ha [14, 17] | plant injury at 125 g/ha [15, 16] | plant injury at 500 g/ha [15, 17]

From patent publication US12077503B2, “Substituted cyclic amides and their use as herbicides” (FMC CORPORATION, priority 2015, dated 2024)
